Data as given in the kinase profiling compilation of Christmann-Franck et al. (2016).

Tests used:
Assay in all cases: radiometric filter-binding kinase assay, Kinase HotSpot
Details in all cases: compound 0.5 µM; ATP 10 µM
[1] = target: PRKACA (human) (UniProt P17612)
[2] = target: CAMK2B (human) (UniProt Q13554)
[3] = target: CDK4 CCND3 (human) (UniProt P30281+P11802)
[4] = target: MAP3K7 TAB1 (human) (UniProt O43318+Q15750)
[5] = target: FGFR3 (human) (UniProt P22607)
[6] = target: MST4 (human) (UniProt Q9P289)
[7] = target: NEK4 (human) (UniProt P51957)
[8] = target: WNK3 (human) (UniProt Q9BYP7)
[9] = target: PRKD2 (human) (UniProt Q9BZL6)
Chain of PRKD2 (human) (Q9BZL6 whole entry, looked up): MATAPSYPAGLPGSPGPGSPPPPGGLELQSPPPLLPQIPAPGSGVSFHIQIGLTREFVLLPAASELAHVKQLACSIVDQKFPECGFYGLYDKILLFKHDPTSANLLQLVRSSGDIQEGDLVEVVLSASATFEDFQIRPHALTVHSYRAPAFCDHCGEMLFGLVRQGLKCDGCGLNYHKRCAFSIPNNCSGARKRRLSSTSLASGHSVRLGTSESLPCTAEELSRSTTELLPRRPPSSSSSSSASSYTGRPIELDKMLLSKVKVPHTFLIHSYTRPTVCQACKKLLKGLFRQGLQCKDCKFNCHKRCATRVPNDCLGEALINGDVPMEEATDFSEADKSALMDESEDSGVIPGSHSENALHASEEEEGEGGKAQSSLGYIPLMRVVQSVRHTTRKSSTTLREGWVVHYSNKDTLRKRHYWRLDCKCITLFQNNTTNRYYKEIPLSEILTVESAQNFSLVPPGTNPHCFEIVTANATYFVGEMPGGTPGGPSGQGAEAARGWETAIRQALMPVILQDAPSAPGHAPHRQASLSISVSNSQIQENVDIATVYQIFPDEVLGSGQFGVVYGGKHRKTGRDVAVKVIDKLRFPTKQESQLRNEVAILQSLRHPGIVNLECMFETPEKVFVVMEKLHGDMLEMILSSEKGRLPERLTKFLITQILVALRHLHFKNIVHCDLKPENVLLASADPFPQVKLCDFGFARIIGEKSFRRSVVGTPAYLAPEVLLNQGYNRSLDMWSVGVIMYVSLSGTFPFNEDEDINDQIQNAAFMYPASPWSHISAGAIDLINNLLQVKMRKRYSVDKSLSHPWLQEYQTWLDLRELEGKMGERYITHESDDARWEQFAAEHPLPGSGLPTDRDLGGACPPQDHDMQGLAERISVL

[10] = target: TGFBR2 (human) (UniProt P37173)
Chain of TGFBR2 (human) (P37173 whole entry, looked up): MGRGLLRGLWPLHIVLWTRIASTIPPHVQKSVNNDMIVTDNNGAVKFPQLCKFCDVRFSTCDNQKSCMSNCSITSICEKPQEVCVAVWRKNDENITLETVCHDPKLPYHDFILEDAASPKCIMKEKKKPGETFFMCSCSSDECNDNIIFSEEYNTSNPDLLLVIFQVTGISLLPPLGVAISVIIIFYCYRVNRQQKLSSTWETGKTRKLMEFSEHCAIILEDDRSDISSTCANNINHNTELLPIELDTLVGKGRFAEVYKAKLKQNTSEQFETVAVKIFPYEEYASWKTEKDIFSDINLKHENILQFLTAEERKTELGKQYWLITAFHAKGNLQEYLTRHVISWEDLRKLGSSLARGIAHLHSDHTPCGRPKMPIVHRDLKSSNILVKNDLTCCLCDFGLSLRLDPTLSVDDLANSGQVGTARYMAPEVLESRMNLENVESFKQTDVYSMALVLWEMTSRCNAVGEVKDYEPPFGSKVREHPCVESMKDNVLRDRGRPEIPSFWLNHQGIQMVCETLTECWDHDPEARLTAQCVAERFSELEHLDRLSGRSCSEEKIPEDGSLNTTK

[11] = target: HIPK2 (human) (UniProt Q9H2X6)
[12] = target: CDK1 CCNB1 (human) (UniProt P06493+P14635)
[13] = target: GSK3A (human) (UniProt P49840)
[14] = target: ULK1 (human) (UniProt O75385)
[15] = target: CDK9 CCNK (human) (UniProt O75909+P50750)
[16] = target: MARK4 (human) (UniProt Q96L34)
[17] = target: ERBB4 (human) (UniProt Q15303)
[18] = target: TBK1 (human) (UniProt Q9UHD2)
[19] = target: RPS6KA5 KD2 (human) (UniProt O75582)
[20] = target: PDGFRA (human) (UniProt P16234)
[21] = target: PIM3 (human) (UniProt Q86V86)
[22] = target: CDK2 CCNA2 (human) (UniProt P24941+P20248)
[23] = target: EPHA1 (human) (UniProt P21709)
Chain of EPHA1 (human) (P21709 whole entry, looked up): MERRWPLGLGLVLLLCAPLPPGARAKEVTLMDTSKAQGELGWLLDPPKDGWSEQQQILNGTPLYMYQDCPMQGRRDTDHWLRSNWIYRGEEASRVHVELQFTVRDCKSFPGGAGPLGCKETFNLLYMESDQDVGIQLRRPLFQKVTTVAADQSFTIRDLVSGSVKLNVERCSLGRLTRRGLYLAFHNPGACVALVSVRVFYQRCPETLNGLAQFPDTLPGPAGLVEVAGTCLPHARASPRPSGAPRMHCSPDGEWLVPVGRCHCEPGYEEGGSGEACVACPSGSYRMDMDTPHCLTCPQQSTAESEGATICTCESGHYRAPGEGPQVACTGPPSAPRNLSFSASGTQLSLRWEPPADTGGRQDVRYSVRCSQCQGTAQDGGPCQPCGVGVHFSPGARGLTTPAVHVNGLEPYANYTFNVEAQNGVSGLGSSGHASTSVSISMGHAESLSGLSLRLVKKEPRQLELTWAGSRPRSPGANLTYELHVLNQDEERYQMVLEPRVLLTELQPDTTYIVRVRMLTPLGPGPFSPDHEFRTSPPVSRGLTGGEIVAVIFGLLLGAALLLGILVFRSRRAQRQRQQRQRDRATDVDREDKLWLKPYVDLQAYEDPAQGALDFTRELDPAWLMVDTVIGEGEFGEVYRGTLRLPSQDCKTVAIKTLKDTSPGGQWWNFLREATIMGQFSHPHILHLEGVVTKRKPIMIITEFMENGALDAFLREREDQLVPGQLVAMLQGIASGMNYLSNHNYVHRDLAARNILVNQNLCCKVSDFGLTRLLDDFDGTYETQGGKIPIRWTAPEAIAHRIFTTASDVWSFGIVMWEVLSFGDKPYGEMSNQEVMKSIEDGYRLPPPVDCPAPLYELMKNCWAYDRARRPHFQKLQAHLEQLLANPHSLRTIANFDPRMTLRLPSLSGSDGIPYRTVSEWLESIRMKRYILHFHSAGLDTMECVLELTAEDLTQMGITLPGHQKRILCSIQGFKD

[24] = target: NEK9 (human) (UniProt Q8TD19)
[25] = target: VRK1 (human) (UniProt Q99986)
[26] = target: CHUK (human) (UniProt O15111)
[27] = target: FLT3 (human) (UniProt P36888)
[28] = target: ACVRL1 (human) (UniProt P37023)
[29] = target: MATK (human) (UniProt P42679)
[30] = target: ROCK2 (human) (UniProt O75116)
[31] = target: KDR (human) (UniProt P35968)
[32] = target: MAP4K5 (human) (UniProt Q9Y4K4)
[33] = target: CHEK1 (human) (UniProt O14757)
[34] = target: RPS6KA4 KD2 (human) (UniProt O75676)
[35] = target: PRKG2 (human) (UniProt Q13237)
[36] = target: PHKG2 (human) (UniProt P15735)
[37] = target: AXL (human) (UniProt P30530)
Chain of AXL (human) (P30530 whole entry, looked up): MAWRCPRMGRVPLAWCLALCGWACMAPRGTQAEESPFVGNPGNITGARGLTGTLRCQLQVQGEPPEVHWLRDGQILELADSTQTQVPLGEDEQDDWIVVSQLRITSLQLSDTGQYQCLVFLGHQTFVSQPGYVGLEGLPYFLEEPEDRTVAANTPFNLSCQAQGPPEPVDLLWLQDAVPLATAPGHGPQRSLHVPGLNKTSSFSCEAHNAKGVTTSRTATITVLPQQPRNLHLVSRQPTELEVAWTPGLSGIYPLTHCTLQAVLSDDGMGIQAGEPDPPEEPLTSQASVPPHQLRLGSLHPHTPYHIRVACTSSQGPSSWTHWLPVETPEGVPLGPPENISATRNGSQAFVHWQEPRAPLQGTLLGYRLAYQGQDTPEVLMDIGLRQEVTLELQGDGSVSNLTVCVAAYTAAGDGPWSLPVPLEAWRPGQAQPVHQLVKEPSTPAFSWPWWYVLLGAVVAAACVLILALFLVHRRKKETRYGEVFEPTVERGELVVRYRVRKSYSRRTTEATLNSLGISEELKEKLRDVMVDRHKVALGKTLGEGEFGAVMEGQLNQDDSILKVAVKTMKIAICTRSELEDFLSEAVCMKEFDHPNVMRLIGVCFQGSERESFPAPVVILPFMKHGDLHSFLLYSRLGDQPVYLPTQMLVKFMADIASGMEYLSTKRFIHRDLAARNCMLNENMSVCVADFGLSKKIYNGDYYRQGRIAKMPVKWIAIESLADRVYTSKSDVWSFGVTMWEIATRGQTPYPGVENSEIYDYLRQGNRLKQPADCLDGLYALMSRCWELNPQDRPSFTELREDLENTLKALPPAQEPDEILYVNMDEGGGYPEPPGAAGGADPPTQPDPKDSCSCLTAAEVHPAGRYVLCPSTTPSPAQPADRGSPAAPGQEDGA

[38] = target: ABL2 (human) (UniProt P42684)
[39] = target: CHEK2 (human) (UniProt O96017)
[40] = target: LIMK1 (human) (UniProt P53667)
Chain of LIMK1 (human) (P53667 whole entry, looked up): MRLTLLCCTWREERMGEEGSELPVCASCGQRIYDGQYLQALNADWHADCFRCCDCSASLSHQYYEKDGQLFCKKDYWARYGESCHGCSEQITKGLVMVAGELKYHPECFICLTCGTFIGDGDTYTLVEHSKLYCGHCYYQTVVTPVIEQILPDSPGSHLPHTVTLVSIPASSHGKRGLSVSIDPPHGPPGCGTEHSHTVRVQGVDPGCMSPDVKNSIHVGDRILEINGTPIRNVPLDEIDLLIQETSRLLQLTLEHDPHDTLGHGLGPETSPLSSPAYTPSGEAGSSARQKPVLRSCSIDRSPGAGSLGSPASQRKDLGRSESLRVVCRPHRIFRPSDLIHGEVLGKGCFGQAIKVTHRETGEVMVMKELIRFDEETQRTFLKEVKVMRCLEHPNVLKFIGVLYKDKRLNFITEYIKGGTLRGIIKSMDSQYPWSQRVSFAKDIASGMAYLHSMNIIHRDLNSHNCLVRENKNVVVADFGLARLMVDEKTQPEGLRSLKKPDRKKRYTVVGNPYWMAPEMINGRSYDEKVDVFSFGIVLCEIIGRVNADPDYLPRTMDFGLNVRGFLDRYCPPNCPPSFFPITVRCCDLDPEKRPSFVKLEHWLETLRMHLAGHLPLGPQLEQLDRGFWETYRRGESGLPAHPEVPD

[41] = target: CSNK1E (human) (UniProt P49674)

Chain of CAMK2B (human) (Q13554 whole entry, looked up): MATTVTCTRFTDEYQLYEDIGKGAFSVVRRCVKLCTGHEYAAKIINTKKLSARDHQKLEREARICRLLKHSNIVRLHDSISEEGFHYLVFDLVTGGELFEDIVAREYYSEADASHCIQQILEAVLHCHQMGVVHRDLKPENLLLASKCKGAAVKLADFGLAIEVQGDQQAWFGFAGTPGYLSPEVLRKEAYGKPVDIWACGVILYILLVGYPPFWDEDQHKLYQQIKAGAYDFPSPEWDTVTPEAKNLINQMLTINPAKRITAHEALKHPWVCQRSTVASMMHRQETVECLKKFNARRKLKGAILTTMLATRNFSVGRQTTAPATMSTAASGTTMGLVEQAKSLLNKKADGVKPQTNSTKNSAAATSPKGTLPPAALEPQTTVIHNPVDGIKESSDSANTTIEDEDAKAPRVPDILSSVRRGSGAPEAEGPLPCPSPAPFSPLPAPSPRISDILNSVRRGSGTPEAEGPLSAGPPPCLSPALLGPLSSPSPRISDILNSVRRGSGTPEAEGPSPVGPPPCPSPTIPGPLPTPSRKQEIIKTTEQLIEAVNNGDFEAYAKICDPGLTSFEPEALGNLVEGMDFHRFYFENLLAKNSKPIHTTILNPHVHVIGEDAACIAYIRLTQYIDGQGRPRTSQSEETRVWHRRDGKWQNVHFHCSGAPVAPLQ

CCN1/C(=C/C(C)=O)Sc2ccc(OC)cc21
residual activity [1]: 98%
residual activity [2]: 102%
residual activity [3]: 97.4%
residual activity [4]: 99.9%
residual activity [5]: 99.1%
residual activity [6]: 87.9%
residual activity [7]: 92.8%
residual activity [8]: 88.1%
residual activity [9]: 69.4%
residual activity [10]: 78.5%
residual activity [11]: 100%
residual activity [12]: 93.2%
residual activity [13]: 85.7%
residual activity [14]: 115%
residual activity [15]: 86.2%
residual activity [16]: 102%
residual activity [17]: 101%
residual activity [18]: 94.5%
residual activity [19]: 87.4%
residual activity [20]: 105%
residual activity [21]: 47.4%
residual activity [22]: 89.7%
residual activity [23]: 95.8%
residual activity [24]: 102%
residual activity [25]: 98.2%
residual activity [26]: 89.9%
residual activity [27]: 76.1%
residual activity [28]: 102%
residual activity [29]: 89.2%
residual activity [30]: 90.7%
residual activity [31]: 104%
residual activity [32]: 92.3%
residual activity [33]: 87.9%
residual activity [34]: 91.8%
residual activity [35]: 65.8%
residual activity [36]: 94.6%
residual activity [37]: 105%
residual activity [38]: 96.1%
residual activity [39]: 104%
residual activity [40]: 108%
residual activity [41]: 60.1%

CC(C)(C)c1nc2c3ccc(F)cc3c3c(=O)[nH]ccc3c2[nH]1
residual activity [1]: 97.9%
residual activity [2]: 73.4%
residual activity [3]: 95.2%
residual activity [4]: 46.6%
residual activity [5]: 93%
residual activity [6]: 70.9%
residual activity [7]: 65.6%
residual activity [8]: 90%
residual activity [9]: 6.13%
residual activity [10]: 58.2%
residual activity [11]: 98.7%
residual activity [12]: 74.9%
residual activity [13]: 121%
residual activity [14]: 12.8%
residual activity [15]: 92.3%
residual activity [16]: 44.5%
residual activity [17]: 99.9%
residual activity [18]: 24%
residual activity [19]: 58%
residual activity [20]: 92.1%
residual activity [21]: 33.9%
residual activity [22]: 86.2%
residual activity [23]: 80.5%
residual activity [24]: 71.7%
residual activity [25]: 82.2%
residual activity [26]: 102%
residual activity [27]: 13.6%
residual activity [28]: 105%
residual activity [29]: 102%
residual activity [30]: 70.7%
residual activity [31]: 103%
residual activity [32]: 65.8%
residual activity [33]: 22.9%
residual activity [34]: 44.7%
residual activity [35]: 14.3%
residual activity [36]: 57.3%
residual activity [37]: 81.9%
residual activity [38]: 90.3%
residual activity [39]: 0.717%
residual activity [40]: 73.7%
residual activity [41]: 85.6%

COc1cc2nccc(Oc3ccc(NC(=S)NC(=O)c4ccccc4C)cc3)c2cc1OC
residual activity [1]: 91.8%
residual activity [2]: 104%
residual activity [3]: 93.4%
residual activity [4]: 95.6%
residual activity [5]: 88.8%
residual activity [6]: 101%
residual activity [7]: 97.6%
residual activity [8]: 101%
residual activity [9]: 86.8%
residual activity [10]: 96.7%
residual activity [11]: 99.2%
residual activity [12]: 90.7%
residual activity [13]: 91.4%
residual activity [14]: 95%
residual activity [15]: 108%
residual activity [16]: 73.3%
residual activity [17]: 114%
residual activity [18]: 103%
residual activity [19]: 95.3%
residual activity [20]: 12.5%
residual activity [21]: 98.2%
residual activity [22]: 94.2%
residual activity [23]: 83%
residual activity [24]: 103%
residual activity [25]: 96.3%
residual activity [26]: 98.3%
residual activity [27]: 46.6%
residual activity [28]: 91.7%
residual activity [29]: 93%
residual activity [30]: 92.5%
residual activity [31]: 74.1%
residual activity [32]: 11.1%
residual activity [33]: 95.1%
residual activity [34]: 99.7%
residual activity [35]: 90.5%
residual activity [36]: 110%
residual activity [37]: 80.4%
residual activity [38]: 74.1%
residual activity [39]: 67%
residual activity [40]: 82.7%
residual activity [41]: 95.1%
